Series [1] deals with RBL-2H3. Put plainly: Cytotoxicity in rat RBL2H3 cells assessed as LDH release. The class given is cell-based. Details: concentration or dose not given beside the values.
Series [2] deals with RBL-2H3. Put plainly: Anti-allergic activity in rat RBL2H3 cells assessed as reduction in calcium ionophore-induced IL-4 level preincubated for 15 mins followed by calcium ionophore stimulation and measured after 3 hrs by ELISA. The class given is functional, cell-based. (In general: ELISA stands for enzyme-linked immunosorbent assay.)
Series [3] concerns RBL-2H3. As to the kind of experiment: Anti-allergic activity in rat RBL2H3 cells assessed as reduction in mouse anti-DNP IgE-induced beta-hexosaminidase release preincubated for 15 mins followed by mouse anti-DNP IgE-stimulation and measured after 3 hrs by p-nitrophenyl-2-acetamide-2-deoxy-beta-glucopyranoside dye-based colorimetric analysis. The class given is functional, cell-based.

Series [4] relates to RBL-2H3. As to the kind of experiment: Anti-allergic activity in rat RBL2H3 cells assessed as reduction in calcium ionophore-induced beta-hexosaminidase release preincubated for 15 mins followed by calcium ionophore-stimulation and measured after 3 hrs by p-nitrophenyl-2-acetamide-2-deoxy-beta-glucopyranoside dye-based colorimetric analysis. The class given is functional, cell-based.

Series [5] concerns RBL-2H3. As to the kind of experiment: Anti-allergic activity in rat RBL2H3 cells assessed as reduction in mouse anti-DNP IgE-induced TNF-alpha level preincubated for 15 mins followed by mouse anti-DNP IgE-stimulation and measured after 3 hrs by ELISA. The class given is functional, cell-based.
The test system of series [6] is RBL-2H3. As to the kind of experiment: Anti-allergic activity in rat RBL2H3 cells assessed as reduction in mouse anti-DNP IgE-induced IL-4 level preincubated for 15 mins followed by mouse anti-DNP IgE-stimulation and measured after 3 hrs by ELISA. The class given is functional, cell-based.
The subject of series [7] is RBL-2H3. As to the kind of experiment: Anti-allergic activity in rat RBL2H3 cells assessed as reduction in calcium ionophore-induced TNF-alpha level preincubated for 15 mins followed by calcium ionophore stimulation and measured after 3 hrs by ELISA. The class given is functional, cell-based.
Series [8] addresses Tyrosine-protein kinase Lyn (Homo sapiens) (UniProt P07948). Particulars: Sf9, 10 uM.
Description: Inhibition of human LYN expressed in baculovirus infected Sf9 insect cells using p-nitrophenol at 10 uM after 10 mins by Lineweaver-Burk plot analysis
Series [9] shares this target. Put plainly: Competitive inhibition of human LYN expressed in baculovirus infected Sf9 insect cells using […] at 10 uM after 10 mins by Lineweaver-Burk plot analysis.
Series [10] deals with Tyrosine-protein kinase Lyn (Rattus norvegicus) (UniProt Q07014). As to the kind of experiment: Inhibition of mouse anti-DNP IgE-induced Lyn phosphorylation in rat RBL2H3 cells at 10 uM preincubated for 15 mins followed by mouse anti-DNP IgE stimulation and measured after 3 hrs by Western blot analysis. The series is classed as cell-based.
Tyrosine-protein kinase Lyn (Rattus norvegicus), sequence (Q07014 whole entry): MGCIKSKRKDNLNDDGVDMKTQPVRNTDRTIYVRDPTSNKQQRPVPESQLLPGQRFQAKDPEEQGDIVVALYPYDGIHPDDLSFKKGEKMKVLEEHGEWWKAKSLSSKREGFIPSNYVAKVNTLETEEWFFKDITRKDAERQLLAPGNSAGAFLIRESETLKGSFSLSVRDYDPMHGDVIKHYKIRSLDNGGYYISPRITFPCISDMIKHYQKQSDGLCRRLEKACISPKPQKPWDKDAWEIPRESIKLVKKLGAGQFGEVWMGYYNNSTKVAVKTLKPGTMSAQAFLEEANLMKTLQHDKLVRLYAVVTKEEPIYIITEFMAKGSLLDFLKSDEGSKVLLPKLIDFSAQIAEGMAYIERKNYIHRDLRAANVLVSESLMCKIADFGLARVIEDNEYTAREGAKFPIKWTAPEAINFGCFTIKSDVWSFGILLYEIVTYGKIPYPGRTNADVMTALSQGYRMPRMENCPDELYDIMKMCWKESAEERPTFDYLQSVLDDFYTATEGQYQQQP
Series [11] has as its system RBL-2H3. Put plainly: Effect on mouse anti-DNP IgE-induced Lyn protein expression in rat RBL2H3 cells at 10 uM preincubated for 15 mins followed by mouse anti-DNP IgE stimulation and measured after 3 hrs by Western blot analysis. The class given is functional, cell-based. A general note: A western blot detects proteins with antibodies after separation by electrophoresis.

Series [12] concerns the target Tyrosine-protein kinase Lyn (Rattus norvegicus) (UniProt Q07014). Put plainly: Inhibition of Lyn in rat RBL2H3 cells assessed as reduction in mouse anti-DNP IgE-induced Syk phosphorylation level at 10 uM preincubated for 15 mins followed by mouse anti-DNP IgE stimulation and measured after 3 hrs by Western blot analysis. The series is classed as cell-based.
Series [13] has as its system RBL-2H3. As to the kind of experiment: Effect on mouse anti-DNP IgE-induced Syk protein expression in rat RBL2H3 cells at 10 uM preincubated for 15 mins followed by mouse anti-DNP IgE stimulation and measured after 3 hrs by Western blot analysis. The class given is functional, cell-based.
The target in series [14] is Tyrosine-protein kinase Lyn (Rattus norvegicus) (UniProt Q07014). As to the kind of experiment: Inhibition of Lyn in rat RBL2H3 cells assessed as reduction in mouse anti-DNP IgE-induced PLCgamma1-phosphorylation level at 10 uM preincubated for 15 mins followed by mouse anti-DNP IgE stimulation and measured after 3 hrs by Western blot analysis. The series is classed as cell-based.

Structures are written as SMILES. Calls of active or inactive are those of the source. No cut-off for these calls is given here. Where only a bound is given, the exact number is not on record here.

Tyrosine-protein kinase Lyn (Homo sapiens), sequence (P07948 2-512 limits assumed): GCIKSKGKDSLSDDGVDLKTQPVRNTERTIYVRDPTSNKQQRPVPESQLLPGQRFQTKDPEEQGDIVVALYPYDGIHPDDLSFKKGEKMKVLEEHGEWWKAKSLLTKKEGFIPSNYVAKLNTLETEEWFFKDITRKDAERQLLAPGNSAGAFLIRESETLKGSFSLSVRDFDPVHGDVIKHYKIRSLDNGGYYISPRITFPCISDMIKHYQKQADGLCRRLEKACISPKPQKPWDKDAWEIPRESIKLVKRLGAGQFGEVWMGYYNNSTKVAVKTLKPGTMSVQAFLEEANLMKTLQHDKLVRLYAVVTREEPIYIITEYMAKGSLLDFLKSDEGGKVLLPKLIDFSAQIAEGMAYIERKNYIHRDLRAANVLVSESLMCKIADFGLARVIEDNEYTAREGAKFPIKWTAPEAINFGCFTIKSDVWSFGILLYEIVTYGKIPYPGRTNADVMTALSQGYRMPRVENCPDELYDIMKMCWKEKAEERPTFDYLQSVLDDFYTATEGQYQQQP

A word on the IC50: it is the midpoint of a concentration-inhibition curve. With `C/C=C/C=C/C(O)=C1/C(=O)[C@@]2(C)[C@H]3\C(=C(O)/C=C/C=C/C)C(=O)[C@@]4(C)[C@@H]1[C@]1(C)O[C@@]4(O)[C@@]3(C)O[C@@]12O`, in the series on RBL-2H3 [1], the Activity was under 5%. Moreover, the IC50 with RBL-2H3 [2] was 9.1 µM; in the series on RBL-2H3 [3] it was 18.3 µM; in the series on RBL-2H3 [4] it was under 100 µM; with RBL-2H3 [5], 29.6 µM; in the series with RBL-2H3 [6], 6.9 µM; with RBL-2H3 [7], 23.2 µM.

Take `CN[C@@H]1C[C@H]2O[C@@](C)([C@@H]1OC)n1c3ccccc3c3c4c(c5c6ccccc6n2c5c31)C(=O)NC4`: the inhibition result in series [8] is “Active”. The inhibition result in series [9] was “inactive”.

With `C/C=C/C=C/C(O)=C1/C(=O)[C@@]2(C)[C@H]3\C(=C(O)/C=C/C=C/C)C(=O)[C@H]4[C@@H]1[C@]1(C)O[C@@]4(O)[C@@]3(C)O[C@@]12O`, the Activity in the series on RBL-2H3 [1] is recorded as under 5%. For the same compound, the IC50 in the series with RBL-2H3 [2] is 17.9 µM; with RBL-2H3 [3] it was 4.5 µM; in the series on RBL-2H3 [4], under 100 µM; with RBL-2H3 [5] it was 17.3 µM; in the series on RBL-2H3 [6], 59.4 µM; with RBL-2H3 [7] it was under 100 µM.

Turning to `C/C=C/C=C/C(=O)C1=C[C@](C)(OC(C)=O)C(=O)C(C)=C1O`, the Activity with RBL-2H3 [1] is reported as under 5%. Also, the half-inhibitory concentration (IC50) is 27.1 µM in the series with RBL-2H3 [2]; 4.8 µM with RBL-2H3 [3]; under 100 µM in the series on RBL-2H3 [4]; 35.6 µM in the series with RBL-2H3 [5]; 8.5 µM in the series with RBL-2H3 [6]; under 100 µM in the series with RBL-2H3 [7].

For `C/C=C/C=C/C(=O)c1cc(C)c(O)c(C)c1O`, the Activity in the series on RBL-2H3 [1] is under 5%. Also, the figures for the concentration for half-maximal inhibition (IC50) with RBL-2H3 [3], in the series on RBL-2H3 [4] and in the series on RBL-2H3 [7] were 26.5 µM, under 100 µM and under 100 µM, respectively.

For the compound `C/C=C/C=C/C(=O)[C@]12C(=O)C(C)=C(O)[C@@](C)(O)[C@H]1[C@H]1\C(=C(O)/C=C/C=C/C)C(=O)[C@]2(C)C(=O)[C@@]1(C)O` [BISORBICILLINOL], the Activity in the series on RBL-2H3 [1] was under 5%. Also, in [10], the inhibition result was “inactive”. For the same compound, the result in the series on RBL-2H3 [11] and in the series on RBL-2H3 [13] was inactive. Besides, the IC50 in the series with RBL-2H3 [2] worked out at 4.9 µM; in the series with RBL-2H3 [3], 2.8 µM; in the series on RBL-2H3 [4], 53.6 µM; in the series on RBL-2H3 [5], 2.9 µM; in the series on RBL-2H3 [6], 2.8 µM; with RBL-2H3 [7], 63.8 µM. Also, the inhibition result in series [12], in series [9] and in series [14] was “Active” throughout.

`C/C=C/C=C/C(=O)C1=C[C@@]2(C)[C@H]3C(C(=O)/C=C/C=C/C)=C(O)C(C)=C(O)[C@@]3(C)O[C@@]2(O)[C@@](C)(O)C1=O` [BISVERTINOLONE]: the Activity with RBL-2H3 [1] is under 5%. Further, the half-maximal inhibitory concentration (IC50) in the series on RBL-2H3 [2] was 7.3 µM; in the series with RBL-2H3 [3] it was 9.1 µM; in the series on RBL-2H3 [4], under 100 µM; with RBL-2H3 [5] it was 40.8 µM; in the series on RBL-2H3 [6] it was 7.7 µM; in the series with RBL-2H3 [7], under 100 µM.

These data come from ChEMBL document CHEMBL4422669, “Bisorbicillinol inhibits Lyn tyrosine kinase for allergic response on RBL-2H3 cells” (Bioorg Med Chem Lett, 2019).
